Data from patent publication US7235649B2, “Isolated GRP94 ligand binding domain polypeptide and nucleic acid encoding same, and screening methods employing same” (Duke University, priority 2000, dated 2007).

How the values were obtained:
GRP94 [1] = molecular target: T1, GRP94 (Sus scrofa, UniProt Q29092); assay: Far-UV circular dichroism; assay type: biochemical, porcine; parameters: GRP94 was purified from porcine pancreas rough microsomes; from tissue; host or cells: porcine pancreas rough microsomes; conditions: 1 μM GRP94, 10 μM bis-ANS 2 hours
Description: Circular Dichroism Measurements. Far-UV CD spectrometry was performed on an AVIV Associates 62DS™ circular dichroism spectrometer (AVIV Associates of Lakewood, N.J.). Samples were analyzed in a 1 mm path length quartz cuvette at 37° C. GRP94 samples (1 μM) were prepared in standard phosphate buffered saline solution as buffer A produced unacceptable dynode voltages in the relevant region of the spectrum. GRP94 was incubated with 10 μM bis-ANS for 2 hours at 37° C. prior to obtaining spectra. Spectra were recorded from 300 to 195 nm. The α-helical content of GRP94 was calculated from the molar ellipticity at 222 nm. See Myers & Jakoby (1975) J Biol Chem 250:3785–3789.
To gain further insight into the nature of the bis-ANS dependent conformational change, GRP94 was subjected to heat shocked or treated with bis-ANS and far-UV CD spectra obtained (FIG. 5).

GRP94 [2] = molecular target: T1, GRP94; assay: Conformational analysis by tryptic proteolysis and SDS-PAGE; assay type: biochemical, porcine; parameters: GRP94 was purified from porcine pancreas rough microsomes; from tissue; host or cells: porcine pancreas rough microsomes; conditions: 5 μM GRP94, 50 μM bis-ANS one hour at 37° C., 0.1% trypsin
HSP90 [3] = assay: as above; assay type: biochemical; conditions: bis-ANS treatment
Description: Conformational Analysis by Proteolysis. […] Samples were then combined with 0.1% trypsin and digested for 30 minutes at 37° C. An equal volume of SDS-PAGE sample buffer was added and the samples were snap frozen in liquid nitrogen. Immediately prior to gel analysis, samples were thawed and boiled for 5 minutes. […] Gels were fixed and stained with Coomassie Blue.

GRP94 [4] = molecular target: T1, GRP94; assay type: biochemical, porcine; parameters: GRP94 was purified from porcine pancreas rough microsomes; from tissue; host or cells: porcine pancreas rough microsomes; conditions: bis-ANS treated GRP94, ten-fold molar excess [125I]-VSV8, 30 min at 37° C.
GRP94 [5] = molecular target: T1, GRP94; assay: Citrate synthase thermal aggregation assay (GRP94 chaperone activity); assay type: biochemical, porcine; parameters: GRP94 was purified from porcine pancreas rough microsomes; from tissue; host or cells: porcine pancreas rough microsomes; conditions: 1 μM GRP94 preincubated two hours with 10 μM bis-ANS, 0.15 μM citrate synthase, 43° C.
Description: Citrate Synthase Aggregation Assays. The effects of GRP94 on the thermal aggregation of citrate synthase were assayed by the methods described by Buchner et al. (1998) Methods Enzymol 290:323–338. Samples containing no protein, or GRP94 (1 μM), were incubated in 40 mM HEPES pH 7.5 for two hours at 37° C. with either 0.2% DMF or 10 μM bis-ANS. The samples were then warmed to 43° C. for five minutes and placed in a spectrofluorometer thermostatted at 43° C. Citrate synthase was then added to 0.15 μM final concentration and the thermal aggregation of the enzyme followed by light scattering. Excitation and emission wavelengths were both 500 nm with 2 nm slit width. The time course of citrate synthase aggregation was followed for 1000 seconds.
To determine if the bis-ANS-dependent conformational changes in GRP94 were of functional significance, the molecular chaperone activities of native, heat shocked and bis-ANS treated GRP94 were evaluated in a thermal aggregation assay, as described by Jakob et al. (1995) J Biol Chem 270:7288–7294 and Buchner et al. (1998) Methods Enzymol 290:323–338. […] Following experimental treatment of the GRP94, reactions were equilibrated at 43° C., citrate synthase then added and aggregation, as represented by light scattering, was measured.

GRP94 [6] = molecular target: T1, GRP94; assay: Blue native polyacrylamide gel electrophoresis (oligomeric state); assay type: biochemical, porcine; parameters: GRP94 was purified from porcine pancreas rough microsomes; from tissue; host or cells: porcine pancreas rough microsomes; conditions: ten-fold molar excess of bis-ANS
Description: Native Blue Electrophoresis. The oligomeric state of GRP94 was assayed by blue native polyacrylamide gel electrophoresis (BN-PAGE) as described by Schagger et al. (1994) Anal Biochem 217:220–230. GRP94 was either heat shocked or exposed to a 10-fold molar excess of bis-ANS for the indicated times. Samples were then dissolved in 15% glycerol and loaded onto 5–18% gradient gels with 0.02% Coomassie Brilliant Blue in the cathode buffer. Gels were run at 4° C., stained with Coomassie Blue, de-stained and dried.
When purified from tissue, GRP94 exists as a homodimer, as described by Wearsch & Nicchitta (1996a) Prot Express Purif 7(1):114–21; Nemoto et al. (1996) J Biochem 120:249–256. Following heat shock however, GRP94 forms higher molecular weight complexes, as described by Wearsch et al. (1998) Biochemistry 37:5709–5719. To further characterize the effects of bis-ANS on GRP94 structure, the oligomerization states of native, heat shocked and bis-ANS treated GRP94 were assayed by the blue native polyacrylamide gel electrophoresis (BN-PAGE) technique described by Schagger et al. (1994). In these experiments, GRP94 was incubated with bis-ANS or briefly heat shocked and subsequently incubated at 37° C. The samples were then analyzed by BN-PAGE. […] However, exposure to heat shock causes a relatively rapid formation of tetramers, hexamers, and octamers (FIG. 4, lanes 2–4).

GRP94 [7] = molecular target: T1, GRP94; assay: Identification of the bis-ANS binding site by photo-crosslinking, trypsin digestion and Edman sequencing; parameters: GRP94 was purified from porcine pancreas rough microsomes; from tissue; host or cells: porcine pancreas rough microsomes; species or system porcine; conditions: 50 μM bis-ANS photo-crosslinked 15 minutes on ice
GRP94 [8] = molecular target: T1, GRP94; assay: Fluorophore binding reactions with native or heat shocked GRP94 (fluorescence emission)
GRP94 [9] = molecular target: T1, GRP94; assay: [3H]-NECA competitive displacement assay; assay type: binding, porcine; parameters: GRP94 was purified from porcine pancreas rough microsomes; from tissue; host or cells: porcine pancreas rough microsomes
Hsp90 [10] = assay: [32P]ATP binding assay (nitrocellulose filtration); parameters: species or system rat; conditions: 50 μM [32P]ATP, 1 hour on ice
Description: Hsp90 was purified from rat liver cytosol as follows. Cytosol was adjusted to 30% ammonium sulfate and stirred for 60 min on ice. The solution was centrifuged at 20,000×g in a Sorvall SS34 rotor for 15 minutes and the supernatant collected and filtered through a 0.22 μm filter. The filtered supernatant was supplemented with protease inhibitors (1 μg/ml pepstatin, 1 μg/ml leupeptin, 20 μg/ml SBTI, and 0.5 mM PMSF) and loaded onto a phenyl-SUPEROSE™ HR10/10 column (Amersham Pharmacia Biotech of Piscataway, N.J.). After washing, the bound proteins were eluted with a gradient of 30–0% saturated ammonium sulfate in 10 mM Tris/HCl, pH 7.5, 1 mM EGTA, 0.5 mM DTT and the Hsp90 containing fractions were identified by SDS-PAGE. The Hsp90 containing fractions were then pooled and dialyzed 2×3 hr against 2 L of low salt buffer (10 mM NaCl, 25 mM Tris, pH 7.8). The dialyzed sample was then filtered through a 0.22 μm filter, and injected onto a MONO-Q™ HR 10/10 column (Amersham Pharmacia Biotech of Piscataway, N.J.) equilibrated in low salt buffer. The column was eluted with a gradient of 10 mM–750 mM NaCl in 25 mM Tris, pH 7.8. The Hsp90-containing fractions were identified by SDS-PAGE and pooled.
ATP Binding Assay. Six μg of GRP94, BiP, and Hsp90 was incubated with 50 μM yZ[^32P] […] Filters were washed with 3×2 mL of ice cold buffer B, placed in 5 mL of scintillation fluid, vortexed, and counted.

BiP = assay: [32P]ATP binding assay (nitrocellulose filtration); parameters: species or system porcine; conditions: 50 μM [32P]ATP, 1 hour on ice
Description: BiP was purified by the following procedure. A lumenal protein fraction obtained from porcine pancreas rough microsomes was cycled overnight through a 1 ml ADP-agarose and a 1 ml ATP-agarose (Sigma Chemical Co. of St. Louis, Mo.) column coupled in series. […] The BiP containing fractions were identified by SDS-PAGE, and dialyzed against 2×4 L of buffer A (110 mM KOAc, 20 mM NaCl, 25 mM K-Hepes, pH 7.2, 2 mM Mg(OAc)2 0.1 mM CaCl2). The protein sample was then applied to a SUPERDEX® 26/60 column (Amersham Pharmacia Biotech of Piscataway, N.J.) equilibrated in buffer A, and the BiP containing fractions, again identified by SDS-PAGE, were pooled and concentrated by centrifugal ultrafiltration (CENTRICON-30®; Amicon of Beverly, Mass.).
(§1) ATP Binding Assay. Six μg of GRP94, BiP, and Hsp90 was incubated with 50 μM yZ[^32P] ATP (1000 μCi/μmol) (Amersham Pharmacia Biotech of Piscataway, N.J.) in buffer B on ice for 1 hour. Nitrocellulose filters (BA85) (Schleicher & Schuell of Keene, N.H.) were individually wet in buffer B before use, and bound versus free [^32P]-ATP was separated by vacuum filtration. Filters were washed with 3×2 mL of ice cold buffer B, placed in 5 mL of scintillation fluid, vortexed, and counted.

GRP94 [11] = molecular target: T1, GRP94; assay: Tryptophan fluorescence (ligand-induced conformational change); conditions: 50 μM NECA, 50 μM geldanamycin, 2.5 mM ATP or 2.5 mM ADP, 1 hour at 37° C.
Description: Tryptophan Fluorescence. Tryptophan fluorescence measurements were conducted in a FLUOROMAX™ spectrofluorometer (Spex Industries, Inc. of Edison, N.J.) with the slit widths set to 1 nm for both excitation and emission. […] All spectra were corrected by subtraction of buffer or buffer plus ligand samples. […] Samples were then cooled to room temperature, transferred to a quartz cuvette, and the spectra collected.

GRP94 [12] = molecular target: T1, GRP94; assay: [32P]ATP binding assay (nitrocellulose filtration); parameters: GRP94 was purified from porcine pancreas rough microsomes; from tissue; host or cells: porcine pancreas rough microsomes; species or system porcine; conditions: 50 μM [32P]ATP, 1 hour on ice
Description: as §1

[13] = molecular target: N-terminal nucleotide binding pocket of Hsp90 (Saccharomyces cerevisiae, UniProt P02829); conditions: Prodromou et al. (1997); read-out: Kd of ATP for Hsp90; cited from earlier work
N-terminal nucleotide binding pocket of Hsp90, sequence (P02829 whole entry): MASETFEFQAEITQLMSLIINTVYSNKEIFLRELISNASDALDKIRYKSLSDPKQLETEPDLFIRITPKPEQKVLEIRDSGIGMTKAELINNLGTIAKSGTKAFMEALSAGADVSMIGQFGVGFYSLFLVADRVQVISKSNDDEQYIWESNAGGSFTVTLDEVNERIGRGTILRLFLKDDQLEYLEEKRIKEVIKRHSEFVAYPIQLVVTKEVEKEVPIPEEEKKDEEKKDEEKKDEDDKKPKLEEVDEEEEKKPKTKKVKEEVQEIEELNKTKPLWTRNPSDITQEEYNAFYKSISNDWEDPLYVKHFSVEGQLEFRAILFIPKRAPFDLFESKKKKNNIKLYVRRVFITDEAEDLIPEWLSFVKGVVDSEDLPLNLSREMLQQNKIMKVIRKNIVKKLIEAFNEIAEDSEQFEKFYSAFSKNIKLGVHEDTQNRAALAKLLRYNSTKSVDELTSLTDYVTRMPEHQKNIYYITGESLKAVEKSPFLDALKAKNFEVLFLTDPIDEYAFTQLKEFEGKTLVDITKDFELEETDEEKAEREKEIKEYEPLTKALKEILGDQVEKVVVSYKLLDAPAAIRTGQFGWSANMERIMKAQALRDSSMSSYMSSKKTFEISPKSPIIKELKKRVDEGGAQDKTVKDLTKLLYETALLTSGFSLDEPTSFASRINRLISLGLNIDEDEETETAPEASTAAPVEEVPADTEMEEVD

T1 sequence (Q29092 22-804): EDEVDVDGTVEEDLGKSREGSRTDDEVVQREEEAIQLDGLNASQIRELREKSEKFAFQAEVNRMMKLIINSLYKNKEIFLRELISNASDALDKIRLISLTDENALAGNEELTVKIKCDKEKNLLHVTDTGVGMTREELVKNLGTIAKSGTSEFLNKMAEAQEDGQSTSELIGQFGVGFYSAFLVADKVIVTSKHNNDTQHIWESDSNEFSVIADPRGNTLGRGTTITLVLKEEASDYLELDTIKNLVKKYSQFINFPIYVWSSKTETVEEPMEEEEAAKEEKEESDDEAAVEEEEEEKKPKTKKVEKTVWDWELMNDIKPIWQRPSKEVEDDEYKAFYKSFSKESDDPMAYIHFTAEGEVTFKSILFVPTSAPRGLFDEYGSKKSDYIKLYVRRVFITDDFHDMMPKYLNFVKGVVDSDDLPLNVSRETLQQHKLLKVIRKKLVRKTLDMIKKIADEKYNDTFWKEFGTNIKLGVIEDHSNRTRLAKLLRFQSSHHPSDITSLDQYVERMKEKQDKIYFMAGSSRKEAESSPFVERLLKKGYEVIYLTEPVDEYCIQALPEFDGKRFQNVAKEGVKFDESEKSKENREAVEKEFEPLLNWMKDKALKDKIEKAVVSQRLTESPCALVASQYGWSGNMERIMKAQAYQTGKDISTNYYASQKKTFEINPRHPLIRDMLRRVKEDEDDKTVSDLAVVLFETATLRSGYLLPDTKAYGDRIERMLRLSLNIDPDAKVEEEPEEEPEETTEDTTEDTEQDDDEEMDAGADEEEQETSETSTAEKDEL

In the case of “4,4′-dianilino-1,1-binaphthyl-5,5-disulfonic acid [bis-ANS]”, the “GRP94 secondary structure (CD spectra)” value (GRP94 [1]) is reported as “does not alter GRP94 secondary structure”, the “trypsin proteolysis pattern of GRP94 (conformation)” value (GRP94 [2]) is reported as “substantially reduced recovery of the prominent proteolysis products” and the “trypsin proteolysis pattern of HSP90 (conformation)” value (HSP90 [3]) is reported as “Essentially identical proteolysis patterns were observed following either heat shock or bis-ANS treatment of HSP90”. The “stimulation of GRP94 peptide binding activity over native protein” value (GRP94 [4]) was “four to five-fold”, the “citrate synthase thermal aggregation in presence of compound-treated GRP94” value (GRP94 [5]) was “no thermal aggregation of citrate synthase was detectable” and the “GRP94 quaternary structure (oligomerization)” value (GRP94 [6]) was “induces changes in the quaternary structure of GRP94 that mimic those seen upon heat shock”. For the same compound, the “site of bis-ANS binding to GRP94” value (GRP94 [7]) was “residues 271–281 of the N-terminal domain of GRP94”, the “fluorophore binding to native GRP94” value (GRP94 [8]; 0.5 μM native GRP94, 5 μM probe, 30 min at 37° C.) was “bi-phasic” and the “saturability of bis-ANS binding” value (GRP94 [8]; heat shocked GRP94) was “binds in a saturable manner to heat shocked GRP94”. For the same compound, the “near maximal bis-ANS binding, molar excess of GRP94 monomer over bis-ANS” value (GRP94 [8]; heat shocked GRP94, fixed bis-ANS 50 nM) was 20 -fold molar excess, the “bis-ANS binding to native GRP94 following extended incubations” value (GRP94 [8]; native GRP94, extended incubation (20 hours)) was “a level of fluorophore binding similar to that seen with heat shocked GRP94 was observed” and the Kd (GRP94 [8]; read-out: half maximal binding of bis-ANS to heat shocked GRP94, fixed bis-ANS 50 nM, increasing heat shocked GRP94, emission 475 nm) was 110 nM.
In the case of `Nc1ncnc2c1ncn2[C@@H]1O[C@H](COP(=O)(O)OP(=O)(O)OP(=O)(O)O)[C@@H](O)[C@H]1O` [ATP], the “molar excess of competitor required for 50% inhibition of [3H]-NECA binding” value (GRP94 [9]; 20 nM [3H]-NECA) is reported as ~1000 -fold molar excess, the “competition with [3H]-NECA for binding to GRP94 (adenosine ligands)” value (GRP94 [9]; 20 nM [3H]-NECA, nominal (80 μM) Mg2+) is reported as “effectively competed” and the “effect of excess Mg2+ on binding to GRP94” value (GRP94 [9]; 10 mM Mg(OAc)2 vs nominal endogenous magnesium) is reported as “markedly stimulated”. The “extent of competition of NECA binding to GRP94” value (GRP94 [9]; FIGS. 10A–10C) was “wholly competed”, the “nucleoside base specificity: binding by [3H]-NECA competitive displacement” value (GRP94 [9]; competitors all at 50 μM, 20 nM [3H]-NECA) was “could bind” and the “relative affinities for GRP94 in presence of Mg2+” value (GRP94 [9]; excess Mg2+) was “nearly identical relative affinities”. For the same compound, the “efficacy of competing NECA binding, ATP relative to ADP” value (GRP94 [9]; nominal Mg2+) was “eight-fold higher efficacy than ADP”, the “ATP binding to Hsp90” value (Hsp90 [10]) was “no ATP binding was observed” and the “ATP binding to BiP” value (BiP) was “displayed the expected ATP binding activity”. The “change of GRP94 tryptophan fluorescence” value (GRP94 [11]) was “the tryptophan fluorescence was decreased”, the “ATP binding to GRP94” value (GRP94 [12]) was “no ATP binding was observed” and the Kd [13] was 132 µM.
